Laboratory results taken from patent US11382328B2, “Rapid drug discovery methods for pathogen inactivation” (priority 2019, dated 2022).

System: E. coli strain W3110
Assay: Synergy assays: Biolog chemical sensitivity panels with Group IB metal, coefficient of drug interaction (CDI) from relative growth
Assay type: cell-based
Details: for CDI (coefficient of drug interaction), copper mixed with biocide: Copper (mM) section
[1] = 1st of 3 copper concentrations (value not shown), 1st of four biocide concentrations
[2] = 1st of 3 copper concentrations (value not shown), 3rd of four biocide concentrations
[3] = 1st of 3 copper concentrations (value not shown), 4th of four biocide concentrations
[4] = 2nd of 3 copper concentrations (value not shown), 1st of four biocide concentrations
[5] = 2nd of 3 copper concentrations (value not shown), 2nd of four biocide concentrations
[6] = 2nd of 3 copper concentrations (value not shown), 3rd of four biocide concentrations
[7] = 2nd of 3 copper concentrations (value not shown), 4th of four biocide concentrations
[8] = 3rd of 3 copper concentrations (value not shown), 1st of four biocide concentrations
[9] = 3rd of 3 copper concentrations (value not shown), 2nd of four biocide concentrations
[10] = 3rd of 3 copper concentrations (value not shown), 3rd of four biocide concentrations
[11] = 3rd of 3 copper concentrations (value not shown), 4th of four biocide concentrations
[12] = Gold section of Table 5, first of three gold concentrations (μM, value not given), biocide concentration 2 of 4
[13] = Gold section of Table 5, first of three gold concentrations (μM, value not given), biocide concentration 3 of 4
[14] = Gold section of Table 5, first of three gold concentrations (μM, value not given), biocide concentration 4 of 4
[15] = Gold section of Table 5, second of three gold concentrations (μM, value not given), biocide concentration 1 of 4
[16] = Gold section of Table 5, second of three gold concentrations (μM, value not given), biocide concentration 2 of 4
[17] = Gold section of Table 5, second of three gold concentrations (μM, value not given), biocide concentration 3 of 4
[18] = Gold section of Table 5, second of three gold concentrations (μM, value not given), biocide concentration 4 of 4
[19] = Gold section of Table 5, third of three gold concentrations (μM, value not given), biocide concentration 1 of 4
[20] = Gold section of Table 5, third of three gold concentrations (μM, value not given), biocide concentration 2 of 4
[21] = Gold section of Table 5, third of three gold concentrations (μM, value not given), biocide concentration 3 of 4
[22] = Gold section of Table 5, third of three gold concentrations (μM, value not given), biocide concentration 4 of 4
[23] = Silver 0.5 μM, biocide concentration 1 of 4
[24] = Silver 0.5 μM, biocide concentration 2 of 4
[25] = Silver 0.5 μM, biocide concentration 3 of 4
[26] = Silver 0.5 μM, biocide concentration 4 of 4
[27] = Silver 1.0 μM, biocide concentration 1 of 4
[28] = Silver 1.0 μM, biocide concentration 2 of 4
[29] = Silver 1.0 μM, biocide concentration 3 of 4
[30] = Silver 1.0 μM, biocide concentration 4 of 4
[31] = Silver 5.0 μM, biocide concentration 1 of 4
[32] = Silver 5.0 μM, biocide concentration 2 of 4
[33] = Silver 5.0 μM, biocide concentration 3 of 4
[34] = Silver 5.0 μM, biocide concentration 4 of 4
[35] = 1st of 3 copper concentrations (value not shown), 2nd of four biocide concentrations
[36] = Gold section of Table 5, first of three gold concentrations (μM, value not given), biocide concentration 1 of 4
[37] = Gold 50 μM, biocide concentration 4 of 4, E. coli

## CN[C@H]1C[C@@H](N)[C@H](O)[C@@H](O[C@@H]2O[C@H](CO)[C@H](O)[C@@H]3OC4(O[C@H]23)O[C@H]([C@@H](N)CO)[C@H](O)[C@H](O)[C@H]4O)[C@@H]1O (stereo partly drawn) [hygromycin B]
[1]
  CDI (coefficient of drug interaction), copper mixed with biocide: 1.19
[2]
  CDI (coefficient of drug interaction), copper mixed with biocide: 0.89
[3]
  CDI (coefficient of drug interaction), copper mixed with biocide: 0.61
[4]
  CDI (coefficient of drug interaction), copper mixed with biocide: 0.80
[5]
  CDI (coefficient of drug interaction), copper mixed with biocide: 0.81
[6]
  CDI (coefficient of drug interaction), copper mixed with biocide: 1.02
[7]
  CDI (coefficient of drug interaction), copper mixed with biocide: Tox
[8]
  CDI (coefficient of drug interaction), copper mixed with biocide: 0.91
[9]
  CDI (coefficient of drug interaction), copper mixed with biocide: 0.79
[10]
  CDI (coefficient of drug interaction), copper mixed with biocide: 0.77
[11]
  CDI (coefficient of drug interaction), copper mixed with biocide: 0.94
[12]
  CDI (coefficient of drug interaction): 0.82
[13]
  CDI (coefficient of drug interaction): Tox
[14]
  CDI (coefficient of drug interaction): Tox
[15]
  CDI (coefficient of drug interaction): 0.96
[16]
  CDI (coefficient of drug interaction): 1.13
[17]
  CDI (coefficient of drug interaction): Tox
[18]
  CDI (coefficient of drug interaction): Tox
[19]
  CDI (coefficient of drug interaction): 0.97
[20]
  CDI (coefficient of drug interaction): 1.27
[21]
  CDI (coefficient of drug interaction): Tox
[22]
  CDI (coefficient of drug interaction): Tox
[23]
  CDI: 1.26
[24]
  CDI: 2.06
[25]
  CDI: Tox
[26]
  CDI: Tox
[27]
  CDI: 0.63
[28]
  CDI: 1.47
[29]
  CDI: Tox
[30]
  CDI: Tox
[31]
  CDI: 0.03
[32]
  CDI: 0.37
[33]
  CDI: Tox
[34]
  CDI: Tox

## CCCCCCCCCCCC[N+](C)(C)CCCS(=O)(=O)O [lauryl sulfobetaine]
[1]
  CDI (coefficient of drug interaction), copper mixed with biocide: 0.96
[35]
  CDI (coefficient of drug interaction), copper mixed with biocide: 1.18
[2]
  CDI (coefficient of drug interaction), copper mixed with biocide: 0.80
[3]
  CDI (coefficient of drug interaction), copper mixed with biocide: 0.21
[4]
  CDI (coefficient of drug interaction), copper mixed with biocide: 0.60
[5]
  CDI (coefficient of drug interaction), copper mixed with biocide: 1.39
[6]
  CDI (coefficient of drug interaction), copper mixed with biocide: 0.72
[7]
  CDI (coefficient of drug interaction), copper mixed with biocide: 0.48
[8]
  CDI (coefficient of drug interaction), copper mixed with biocide: 0.48
[9]
  CDI (coefficient of drug interaction), copper mixed with biocide: 0.80
[10]
  CDI (coefficient of drug interaction), copper mixed with biocide: 0.34
[11]
  CDI (coefficient of drug interaction), copper mixed with biocide: 0.07
[36]
  CDI (coefficient of drug interaction): 0.86
[12]
  CDI (coefficient of drug interaction): 1.26
[13]
  CDI (coefficient of drug interaction): 0.86
[14]
  CDI (coefficient of drug interaction): 0.99
[15]
  CDI (coefficient of drug interaction): 0.96
[16]
  CDI (coefficient of drug interaction): 0.87
[17]
  CDI (coefficient of drug interaction): 1.00
[18]
  CDI (coefficient of drug interaction): 1.09
[19]
  CDI (coefficient of drug interaction): 1.13
[20]
  CDI (coefficient of drug interaction): 1.04
[21]
  CDI (coefficient of drug interaction): 0.96
Silver 0.5 μM, 1st of four biocide concentrations, E. coli
  CDI (coefficient of drug interaction), silver + biocide: 0.83
Silver 0.5 μM, 2nd of four biocide concentrations, E. coli
  CDI (coefficient of drug interaction), silver + biocide: 0.56
Silver 0.5 μM, 3rd of four biocide concentrations, E. coli
  CDI (coefficient of drug interaction), silver + biocide: Tox
Silver 0.5 μM, 4th of four biocide concentrations, E. coli
  CDI (coefficient of drug interaction), silver + biocide: Tox
Silver 1.0 μM, 1st of four biocide concentrations, E. coli
  CDI (coefficient of drug interaction), silver + biocide: 0.91
Silver 1.0 μM, 2nd of four biocide concentrations, E. coli
  CDI (coefficient of drug interaction), silver + biocide: 0.79
Silver 1.0 μM, 3rd of four biocide concentrations, E. coli
  CDI (coefficient of drug interaction), silver + biocide: Tox
Silver 1.0 μM, 4th of four biocide concentrations, E. coli
  CDI (coefficient of drug interaction), silver + biocide: Tox
Silver 5.0 μM, 1st of four biocide concentrations, E. coli
  CDI (coefficient of drug interaction), silver + biocide: 1.42
Silver 5.0 μM, 2nd of four biocide concentrations, E. coli
  CDI (coefficient of drug interaction), silver + biocide: 1.41
Silver 5.0 μM, 3rd of four biocide concentrations, E. coli
  CDI (coefficient of drug interaction), silver + biocide: Tox
Silver 5.0 μM, 4th of four biocide concentrations, E. coli
  CDI (coefficient of drug interaction), silver + biocide: Tox

## O=C1C=C(O)C(=O)c2ccccc21 [lawsone]
[14]
  CDI (coefficient of drug interaction): Tox
[18]
  CDI (coefficient of drug interaction): Tox
[22]
  CDI (coefficient of drug interaction): Tox
[26]
  CDI: Tox
[30]
  CDI: Tox
[34]
  CDI: Tox

## O=C(O)CI [lodoacetate]
[36]
  CDI (coefficient of drug interaction): 0.77
[12]
  CDI (coefficient of drug interaction): Tox
[13]
  CDI (coefficient of drug interaction): Tox
[14]
  CDI (coefficient of drug interaction): Tox
[15]
  CDI (coefficient of drug interaction): 1.00
[16]
  CDI (coefficient of drug interaction): Tox
[17]
  CDI (coefficient of drug interaction): Tox
[18]
  CDI (coefficient of drug interaction): Tox
[19]
  CDI (coefficient of drug interaction): 0.88
[20]
  CDI (coefficient of drug interaction): Tox
[21]
  CDI (coefficient of drug interaction): Tox
[22]
  CDI (coefficient of drug interaction): Tox

## CCn1cc(C(=O)O)c(=O)c2cc(F)c(N3CCNC(C)C3)c(F)c21 (stereo not drawn) [lomefloxacin]
[37]
  CDI (coefficient of drug interaction): Tox

## C[n+]1ccc(-c2cc[n+](C)cc2)cc1 [methyl viologen]
[1]
  CDI (coefficient of drug interaction), copper mixed with biocide: 0.85
[35]
  CDI (coefficient of drug interaction), copper mixed with biocide: 0.99
[2]
  CDI (coefficient of drug interaction), copper mixed with biocide: Tox
[3]
  CDI (coefficient of drug interaction), copper mixed with biocide: Tox
[4]
  CDI (coefficient of drug interaction), copper mixed with biocide: 0.63
[5]
  CDI (coefficient of drug interaction), copper mixed with biocide: 0.77
[6]
  CDI (coefficient of drug interaction), copper mixed with biocide: Tox
[7]
  CDI (coefficient of drug interaction), copper mixed with biocide: Tox
[8]
  CDI (coefficient of drug interaction), copper mixed with biocide: 0.61
[9]
  CDI (coefficient of drug interaction), copper mixed with biocide: 0.64
[10]
  CDI (coefficient of drug interaction), copper mixed with biocide: Tox
[11]
  CDI (coefficient of drug interaction), copper mixed with biocide: Tox
[36]
  CDI (coefficient of drug interaction): 0.99
[12]
  CDI (coefficient of drug interaction): 1.07
[13]
  CDI (coefficient of drug interaction): 0.82
[14]
  CDI (coefficient of drug interaction): 0.08
[15]
  CDI (coefficient of drug interaction): 1.01
[16]
  CDI (coefficient of drug interaction): 1.01
[17]
  CDI (coefficient of drug interaction): 0.66
[18]
  CDI (coefficient of drug interaction): 0.78
[19]
  CDI (coefficient of drug interaction): 1.04
[20]
  CDI (coefficient of drug interaction): 0.98
[21]
  CDI (coefficient of drug interaction): 0.50
[22]
  CDI (coefficient of drug interaction): 0.28
[23]
  CDI: 0.89
[24]
  CDI: 0.73
[25]
  CDI: Tox
[26]
  CDI: Tox
[27]
  CDI: 0.48
[28]
  CDI: 0.20
[29]
  CDI: Tox
[30]
  CDI: Tox
[31]
  CDI: 0.07
[32]
  CDI: 0.01
[33]
  CDI: Tox
[34]
  CDI: Tox

## O=C1CN(/N=C/c2ccc([N+](=O)[O-])o2)C(=O)N1 [nitrofurantoin]
[37]
  CDI (coefficient of drug interaction): Tox

## CCn1cc(C(=O)O)c(=O)c2cc(F)c(N3CCNCC3)cc21 [norfloxacin]
[37]
  CDI (coefficient of drug interaction): Tox
